# The source made the active and inactive calls. The rule behind the calls is not given here.
# Legend:
# [1] = system: Staphylococcus ureilyticus; assay: Antibacterial activity against clinical isolate Staphylococcus ureilyticus 1972 measured after 24 hrs by broth microdilution method; type: functional
# Staphylococcus aureus [2] = assay: Antibacterial activity against Staphylococcus aureus ATCC 29213 measured after 24 hrs by broth microdilution method; type: functional
# Bacillus subtilis = assay: Antibacterial activity against Bacillus subtilis 168 measured after 24 hrs by broth microdilution method; type: functional
# Micrococcus luteus [3] = assay: Antibacterial activity against Micrococcus luteus clinical isolate measured after 24 hrs by broth microdilution method; type: functional
# Escherichia coli [4] = assay: Antibacterial activity against Escherichia coli MG 1655 measured after 24 hrs by broth microdilution method; type: functional
# Pseudomonas aeruginosa [5] = assay: Antibacterial activity against Pseudomonas aeruginosa ATCC 27853 measured after 24 hrs by broth microdilution method; type: functional
# [6] = Cytotoxicity against human HEK293 cells assessed as cell viability measured after 72 hrs by MTT assay; type: cell-based
# [7] = Cytotoxicity against human mesenchymal stem cells assessed as cell viability measured after 72 hrs by MTT assay; type: cell-based
# [8] = Cytotoxicity against human skin fibroblasts assessed as cell viability measured after 72 hrs by MTT assay; type: cell-based, Fibroblast
# [9] = Genotoxicity in Salmonella typhimurium TA1535/pSK1002 assessed as DNA-damage activity by measuring beta-galactosidase activity at 750 ug/ml measured by SOS-chromotest relative to solvent control; type: toxicity; settings: salmonella enterica subsp. enterica serovar typhimurium; dose 750 µg/ml
# [10] = Genotoxicity in Salmonella typhimurium TA1535/pSK1002 assessed as DNA-damage activity by measuring beta-galactosidase activity at 150 ug/ml measured by SOS-chromotest relative to solvent control; type: toxicity; settings: salmonella enterica subsp. enterica serovar typhimurium; dose 150 µg/ml
# [11] = Genotoxicity in Salmonella typhimurium TA1535/pSK1002 assessed as DNA-damage activity by measuring beta-galactosidase activity at 75 ug/ml measured by SOS-chromotest relative to solvent control; type: toxicity; settings: salmonella enterica subsp. enterica serovar typhimurium; dose 75 µg/ml
# [12] = Genotoxicity in Salmonella typhimurium TA1535/pSK1002 assessed as DNA-damage activity by measuring beta-galactosidase activity at 15 ug/ml measured by SOS-chromotest relative to solvent control; type: toxicity; settings: salmonella enterica subsp. enterica serovar typhimurium; dose 15 µg/ml
# [13] = Genotoxicity in Salmonella typhimurium TA1535/pSK1002 assessed as DNA-damage activity by measuring beta-galactosidase activity at 7.5 ug/ml measured by SOS-chromotest relative to solvent control; type: toxicity; settings: salmonella enterica subsp. enterica serovar typhimurium; dose 7.5 µg/ml
# [14] = Genotoxicity in Salmonella typhimurium TA1535 assessed as number of revertant by Ames spot test relative to solvent control; type: toxicity; settings: salmonella enterica subsp. enterica serovar typhimurium
# [15] = Genotoxicity in Salmonella typhimurium TA1537 assessed as number of revertant by Ames spot test relative to solvent control; type: toxicity; settings: salmonella enterica subsp. enterica serovar typhimurium
# [16] = Genotoxicity in Salmonella typhimurium TA98 assessed as number of revertant by Ames spot test relative to solvent control; type: toxicity; settings: salmonella enterica subsp. enterica serovar typhimurium
# [17] = Genotoxicity in Salmonella typhimurium TA100 assessed as number of revertant by Ames spot test relative to solvent control; type: toxicity; settings: salmonella enterica subsp. enterica serovar typhimurium
# Staphylococcus aureus [18] = assay: Antibacterial activity against clinical isolate methicillin-resistant Staphylococcus aureus 713 measured after 24 hrs by broth microdilution method; type: functional
# Staphylococcus aureus [19] = assay: Antibacterial activity against clinical isolate methicillin-resistant Staphylococcus aureus 983 measured after 24 hrs by broth microdilution method; type: functional
# Staphylococcus aureus [20] = assay: Antibacterial activity against clinical isolate methicillin-resistant Staphylococcus aureus 1053 measured after 24 hrs by broth microdilution method; type: functional
# [21] = system: Staphylococcus intermedius; assay: Antibacterial activity against clinical isolate methicillin-resistant Staphylococcus intermedius 1061 measured after 24 hrs by broth microdilution method; type: functional
# Staphylococcus aureus [22] = assay: Antibacterial activity against clinical isolate methicillin-resistant Staphylococcus aureus 1065 measured after 24 hrs by broth microdilution method; type: functional
# Staphylococcus aureus [23] = assay: Antibacterial activity against clinical isolate methicillin-resistant Staphylococcus aureus 1131 measured after 24 hrs by broth microdilution method; type: functional
# [24] = system: Staphylococcus intermedius; assay: Antibacterial activity against clinical isolate methicillin-resistant Staphylococcus intermedius 1143 measured after 24 hrs by broth microdilution method; type: functional
# Staphylococcus aureus [25] = assay: Antibacterial activity against clinical isolate Staphylococcus aureus 25 measured after 24 hrs by broth microdilution method; type: functional
# Enterococcus faecalis [26] = assay: Antibacterial activity against clinical isolate Enterococcus faecalis 23 measured after 24 hrs by broth microdilution method; type: functional
# Enterococcus faecalis [27] = assay: Antibacterial activity against clinical isolate Enterococcus faecalis 3063 measured after 24 hrs by broth microdilution method; type: functional
# Acinetobacter sp. = assay: Antibacterial activity against clinical isolate Acinetobacter sp. 3 measured after 24 hrs by broth microdilution method; type: functional
# Pseudomonas sp. = assay: Antibacterial activity against clinical isolate Pseudomonas sp. 5 measured after 24 hrs by broth microdilution method; type: functional
# Klebsiella sp. = assay: Antibacterial activity against clinical isolate Klebsiella sp. 11 measured after 24 hrs by broth microdilution method; type: functional
# Proteus sp. = assay: Antibacterial activity against clinical isolate Proteus sp. 17 measured after 24 hrs by broth microdilution method; type: functional; settings: Proteus sp. (in: enterobacteria)
# Escherichia coli [28] = assay: Antibacterial activity against clinical isolate Escherichia coli 718 measured after 24 hrs by broth microdilution method; type: functional
# Moraxella = assay: Antibacterial activity against clinical isolate Moraxella 765 measured after 24 hrs by broth microdilution method; type: functional
# Klebsiella pneumoniae = assay: Antibacterial activity against clinical isolate Klebsiella pneumoniae 1813 measured after 24 hrs by broth microdilution method; type: functional
# Pseudomonas aeruginosa [29] = assay: Antibacterial activity against clinical isolate Pseudomonas aeruginosa 1945 measured after 24 hrs by broth microdilution method; type: functional
# Serratia marcescens = assay: Antibacterial activity against clinical isolate Serratia marcescens 1966 measured after 24 hrs by broth microdilution method; type: functional
# Staphylococcus aureus [30] = assay: Antibiofilm activity against biofilm-embedded Staphylococcus aureus assessed as reduction in log CFU at 1 to 32 times of MBC measured after 24 hrs by drop plate assay; type: functional, organism-based
# Micrococcus luteus [31] = assay: Antibiofilm activity against biofilm-embedded Micrococcus luteus assessed as reduction in log CFU at 1 to 32 times of MBC measured after 24 hrs by drop plate assay; type: functional, organism-based
# Escherichia coli [32] = assay: Antibiofilm activity against biofilm-embedded Escherichia coli assessed as reduction in log CFU at 1 to 32 times of MBC measured after 24 hrs by drop plate assay; type: functional, organism-based
# Pseudomonas aeruginosa [33] = assay: Antibiofilm activity against biofilm-embedded Pseudomonas aeruginosa assessed as reduction in log CFU at 1 to 32 times of MBC measured after 24 hrs by drop plate assay; type: functional, organism-based
# Staphylococcus aureus [34] = assay: Antibacterial activity against Staphylococcus aureus assessed as fold increase in MIC after 8 passages by serial dilution method; type: functional, organism-based; settings: time 24.0 hrs
# Escherichia coli [35] = assay: Antibacterial activity against Escherichia coli assessed as fold increase in MIC after 4 passages by serial dilution method; type: functional, organism-based; settings: time 24.0 hrs
# [36] = Acute toxicity in C57BL/6CBA mouse assessed as pale kidneys at 2000 mg/kg, po after 7 days; type: organism-based; settings: in vivo, 168 h, time 7 day
# [37] = Acute toxicity in C57BL/6CBA mouse assessed pale gastric mucosa at 2000 mg/kg, po after 7 days; type: organism-based; settings: in vivo, 168 h, time 7 day
# [38] = Acute toxicity in po dosed C57BL/6CBA mouse measured upto 7 days; type: organism-based; settings: in vivo, time <=7 day
# [39] = Acute toxicity in topically treated C57BL/6CBA mouse measured upto 14 days; settings: in vivo, topical or ocular, time <=14 day
# Cell membrane [40] = assay: Induction of cell membrane damage in Staphylococcus aureus assessed as decrease in flourescence measured for 35 mins with 5 min interval by DioC2(3) based flourescence method
# Cell membrane [41] = assay: Induction of cell membrane damage in Escherichia coli assessed as decrease in flourescence measured for 35 mins with 5 min interval by DioC2(3) based flourescence method
# [42] = Acute toxicity in topically treated C57BL/6CBA mouse assessed as death measured at 2500 mg/kg treated as single topically measured after 14 days; type: organism-based; settings: in vivo, topical_or_ocular, 336 h, time 14 day
# [43] = Acute toxicity in C57BL/6CBA mouse assessed as necropsy measured at 2500 mg/kg treated as single topically measured after 14 days; type: organism-based; settings: in vivo, topical_or_ocular, 336 h, time 14 day
# [44] = Antibiofilm activity against biofilm-embedded Staphylococcus aureus/Escherichia coli assessed as reduction in viable cells upto 512 mg/L measured after 24 hrs by drop plate based dual species biofilm assay; type: functional, cell-based; settings: dose mg/L <=512, time 24.0 hrs
# [45] = Antibiofilm activity against biofilm-embedded Staphylococcus aureus/Pseudomonas aeruginosa assessed as reduction in viable cells upto 512 mg/L measured after 24 hrs by drop plate based dual species biofilm assay; type: functional, cell-based; settings: dose mg/L <=512, time 24.0 hrs
# [46] = Lipophilicity, logP of the compound; type: physicochemical; settings: octanol/water
compound,measurement,setting,value
CCCCCCCCCCCCCC(=O)NCC[N+](C)(C)Cc1nc(C)c2c(c1CO)COC(C)(C)O2.[Cl-],MIC,[1],> 64 µg/mL
same,MIC,Staphylococcus aureus [2],1 µg/mL
same,MIC,Bacillus subtilis,1 µg/mL
same,MIC,Micrococcus luteus [3],2 µg/mL
same,MIC,Escherichia coli [4],8 µg/mL
same,MIC,Pseudomonas aeruginosa [5],> 64 µg/mL
same,CC50 at 72 h,[6],1.32 µg/mL
same,CC50 at 72 h,[7],1.74 µg/mL
same,CC50 at 72 h,[8],3.21 µg/mL
same,Ratio,[9],0.4
same,Ratio,[10],0.7
same,Ratio,[11],0.7
same,Ratio,[12],1.8
same,Ratio,[13],1.6
same,Ratio,[14],1.1
same,Ratio,[15],0.01
same,Ratio,[16],1.9
same,Ratio,[17],1.7
same,MIC,Staphylococcus aureus [18],4 µg/mL
same,MIC,Staphylococcus aureus [19],32 µg/mL
same,MIC,Staphylococcus aureus [20],4 µg/mL
same,MIC,[21],4 µg/mL
same,MIC,Staphylococcus aureus [22],2 µg/mL
same,MIC,Staphylococcus aureus [23],4 µg/mL
same,MIC,[24],4 µg/mL
same,MIC,Staphylococcus aureus [25],2 µg/mL
same,MIC,Enterococcus faecalis [26],1 µg/mL
same,MIC,Enterococcus faecalis [27],1 µg/mL
same,MIC,Acinetobacter sp.,32 µg/mL
same,MIC,Pseudomonas sp.,32 µg/mL
same,MIC,Klebsiella sp.,32 µg/mL
same,MIC,Proteus sp.,> 64 µg/mL
same,MIC,Escherichia coli [28],16 µg/mL
same,MIC,Moraxella,64 µg/mL
same,MIC,Klebsiella pneumoniae,2 µg/mL
same,MIC,Pseudomonas aeruginosa [29],32 µg/mL
same,MIC,Serratia marcescens,> 64 µg/mL
same,Activity,Staphylococcus aureus [30],Active
same,Activity,Micrococcus luteus [31],Active
same,Activity,Escherichia coli [32],Active
same,Activity,Pseudomonas aeruginosa [33],Active
same,MIC,Staphylococcus aureus [34],Active
same,MIC,Escherichia coli [35],Active
same,Activity,[36],Toxic
same,Activity,[37],Toxic
same,LD50 at 168 h,[38],> 2000 mg/kg
same,LD50 at 336 h,[39],> 2500 mg/kg
same,Activity,Cell membrane [40],Dose-Dependent Effect
same,Activity,Cell membrane [41],Dose-Dependent Effect
same,Activity,[42],Non-Toxic
same,Activity,[43],Non-Toxic
same,Activity,[44],inactive
same,Activity,[45],inactive
same,logP,[46],0.73
[H]/N=C(\N/C(=N/[H])NCCCCCCNC(=N)NC(=N)Nc1ccc(Cl)cc1)Nc1ccc(Cl)cc1 [CHLORHEXIDINE],MIC,Staphylococcus aureus [2],2 µg/mL
same,MIC,Bacillus subtilis,1 µg/mL
same,MIC,Micrococcus luteus [3],0.5 µg/mL
same,MIC,Escherichia coli [4],1 µg/mL
same,MIC,Pseudomonas aeruginosa [5],4 µg/mL
same,CC50 at 72 h,[6],7.28 µg/mL
same,CC50 at 72 h,[7],5.12 µg/mL
same,CC50 at 72 h,[8],6.32 µg/mL
same,LD50 at 168 h,[38],1260 mg/kg
same,logP,[46],4.51
CCCCCCCCCCCCCC(=O)NCC[N+](C)(C)Cc1cnc(C)c2c1COC(C)(CCC)O2.[Cl-] (configuration not stated),MIC,[1],> 64 µg/mL
same,MIC,Staphylococcus aureus [2],1 µg/mL
same,MIC,Bacillus subtilis,2 µg/mL
same,MIC,Micrococcus luteus [3],1 µg/mL
same,MIC,Escherichia coli [4],32 µg/mL
same,MIC,Pseudomonas aeruginosa [5],8 µg/mL
same,CC50 at 72 h,[6],1.16 µg/mL
same,CC50 at 72 h,[7],1.38 µg/mL
same,CC50 at 72 h,[8],2.15 µg/mL
same,Ratio,[9],0.3
same,Ratio,[10],0.5
same,Ratio,[11],0.9
same,Ratio,[12],1.6
same,Ratio,[13],1.5
same,Ratio,[14],0.5
same,Ratio,[15],0.03
same,Ratio,[16],4.4
same,Ratio,[17],0.7
same,MIC,Staphylococcus aureus [18],2 µg/mL
same,MIC,Staphylococcus aureus [19],16 µg/mL
same,MIC,Staphylococcus aureus [20],1 µg/mL
same,MIC,[21],2 µg/mL
same,MIC,Staphylococcus aureus [22],2 µg/mL
same,MIC,Staphylococcus aureus [23],2 µg/mL
same,MIC,[24],2 µg/mL
same,MIC,Staphylococcus aureus [25],2 µg/mL
same,MIC,Enterococcus faecalis [26],1 µg/mL
same,MIC,Enterococcus faecalis [27],1 µg/mL
same,MIC,Acinetobacter sp.,32 µg/mL
same,MIC,Pseudomonas sp.,32 µg/mL
same,MIC,Klebsiella sp.,32 µg/mL
same,MIC,Proteus sp.,> 64 µg/mL
same,MIC,Escherichia coli [28],8 µg/mL
same,MIC,Moraxella,16 µg/mL
same,MIC,Klebsiella pneumoniae,8 µg/mL
same,MIC,Pseudomonas aeruginosa [29],64 µg/mL
same,MIC,Serratia marcescens,64 µg/mL
same,logP,[46],2.24

# Reference: ChEMBL document CHEMBL4819019, “Design, synthesis, antibacterial activity and toxicity of novel quaternary ammonium compounds based on pyridoxine and fatty acids” (Eur J Med Chem, 2021)
